Target: T1, human orexin type 2 receptor (Homo sapiens, UniProt O43614)
T1 construct: expressed in transfected cells
T1 sequence (O43614 1-444): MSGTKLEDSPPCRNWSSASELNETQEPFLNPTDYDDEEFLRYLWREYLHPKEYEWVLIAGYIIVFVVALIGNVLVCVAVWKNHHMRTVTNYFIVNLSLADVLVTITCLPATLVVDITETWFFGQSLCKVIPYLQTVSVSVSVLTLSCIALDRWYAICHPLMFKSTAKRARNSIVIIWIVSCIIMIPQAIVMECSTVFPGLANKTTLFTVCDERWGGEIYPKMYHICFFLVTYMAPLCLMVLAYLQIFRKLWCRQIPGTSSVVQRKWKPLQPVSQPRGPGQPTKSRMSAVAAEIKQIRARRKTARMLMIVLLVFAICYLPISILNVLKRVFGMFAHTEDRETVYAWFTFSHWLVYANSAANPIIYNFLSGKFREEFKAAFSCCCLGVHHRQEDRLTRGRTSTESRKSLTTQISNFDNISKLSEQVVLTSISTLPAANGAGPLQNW
Assay: Measurement of orexin type 2 receptor agonist activity (calcium indicator fluorescence, CHO cells forcibly expressing human OX2 receptor)
Format: cell-based
Conditions: compound at 3 μM; 0% = DMSO, 100% = orexin A (human) 10 nM
In short: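 CHO-dhfr cells stably expressing human OX2R, loaded with Fluo-4 AM (30 min 37 °C, then 30 min RT), then given test compound. Calcium fluorescence read by FDSS over ~2 min. Activity (%) scaled from DMSO (0%) to 10 nM final orexin A (100%).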

Row | Compound | OX2R agonist activity (3 μM, %)
1 | Cc1cccc(-c2cccc(C[C@H]3[C@@H](NS(=O)(=O)C4CC4)C(F)(F)CN3C(=O)N(C)C)c2F)c1F [Example 521, (2S,3R)-3-[(cyclopropanesulfonyl)amino]-2-[(2,2′-difluoro-3′-methyl[1,1′-biphenyl]-3 yl)methyl]-4,4-difluoro-N,N-dimethylpyrrolidine-1-carboxamide] | 97%
2 | CN(C)C(=O)N1CC(F)(F)[C@H](NS(=O)(=O)C2CC2)[C@@H]1Cc1cccc(-c2cccc(F)c2)c1F [Example 523, (2S,3R)-3-[(cyclopropanesulfonyl)amino]-2-[(2,3′-difluoro[1,1′-biphenyl]-3-yl)methyl]-4,4-difluoro-N,N-dimethylpyrrolidine-1-carboxamide] | 86%
3 | CN(C)C(=O)N1CC(F)(F)[C@H](NS(=O)(=O)C2CC2)[C@@H]1Cc1cccc(-c2cc(F)cc(F)c2)c1F [Example 524, (2S,3R)-3-[(cyclopropanesulfonyl)amino]-4,4-difluoro-N,N-dimethyl-2-[(2,3′,5′-trifluoro[1,1′-biphenyl]-3-yl)methyl]pyrrolidine-1-carboxamide] | 87%
4 | Cc1cc(F)cc(-c2cccc(C[C@H]3[C@@H](NS(=O)(=O)N(C)C)C(F)(F)CN3C(=O)N(C)C)c2F)c1 [Example 526, (2S,3R)-2-[(2,3′-difluoro-5′-methyl[1,1′-biphenyl]-3-yl)methyl]-3-[(dimethyslulfamoyl)amino]-4,4-difluoro-N,N-dimethylpyrrolidine-1-carboxamide] | 83%
5 | Cc1cccc(-c2cccc(C[C@H]3[C@@H](NS(=O)(=O)C4CC4)C(F)(F)CN3C(=O)N3CCC3)c2F)c1F [Example 527, N-{(2S,3R)-1-(azetidine-1-carbonyl)-2-[(2,2′-difluoro-3′-methyl[1,1′-biphenyl]-3-yl)methyl]-4,4-difluoropyrrolidin-3-yl}cyclopropanesulfonamide] | 95%
6 | Cc1cc(F)cc(-c2cccc(C[C@H]3[C@@H](NS(=O)(=O)C4CC4)C(F)(F)CN3C(=O)N3CCC3)c2F)c1 [Example 529, N-{(2S,3R)-1-(azetidine-1-carbonyl)-2-[(2,3′-difluroo-5′-methyl[1,1′-biphenyl]-3-yl)methyl]-4,4-difluoropyrrolidin-3-yl}cyclopropanesulfonamide] | 95%
7 | Cc1cccc(-c2cccc(C[C@H]3[C@@H](NS(=O)(=O)C4CC4)C(F)(F)CN3C(=O)[C@H]3CCO3)c2F)c1F [Example 530, N-{(2S,3R)-2-[(2,2′-difluoro-3′-methyl[1,1′-biphenyl]-3-yl)methyl]-4,4-difluoro-1-[(2R)-oxetane-2-carbonyl]pyrrolidin-3-yl}cyclopropanesulfonamide] | 94%
8 | Cc1cccc(-c2cccc(C[C@H]3[C@@H](NS(=O)(=O)N(C)C)C(F)(F)CN3C(=O)N(C)C)c2F)c1F [Example 531, (2S,3R)-2-[(2,2′-difluoro-3′-methyl[1,1′-biphenyl]-3-yl)methyl]-3-[(dimethylsulfamoyl)amino]-4,4-difluoro-N,N-dimethylpyrrolidine-1-carboxamide] | 95%
9 | CN(C)C(=O)N1CC(F)(F)[C@H](NS(=O)(=O)N(C)C)[C@@H]1Cc1cccc(-c2cc(F)cc(F)c2)c1F [Example 532, (2S,3R)-3-[(dimethylsulfamoyl)amino]-4,4-difluoro-N,N-dimethyl-2-[(2,3′,5′-trifluoro[1,1′-biphenyl]-3-yl)methyl]pyrrolidine-1-carboxamide] | 96%
10 | Cc1cc(F)cc(-c2cccc(C[C@H]3[C@@H](NS(=O)(=O)C4CC4)C(F)(F)CN3C(=O)[C@H]3CCO3)c2F)c1 [Example 533, N-{(2S,3R)-2-[(2,3′-difluoro-5′-methyl[1,1′-biphenyl]-3-yl)methyl]-4,4-difluoro-1-[(2R)-oxetane-2-carbonyl]pyrrolidin-3-yl}cyclopropanesulfonamide] | 101%
11 | CCS(=O)(=O)N[C@H]1[C@@H](F)CN(C(=O)C2(O)CCC2)[C@H]1Cc1cccc(-c2cccc(C)c2)c1F [Example 536, N-[(2S,3R,4S)-4-fluoro-2-[(2-fluoro-3′-methyl[1,1′-biphenyl]-3-yl)methyl]-1-(1-hydroxycyclobutane-1-carbonyl)pyrrolidin-3-yl]ethanesulfonamide] | 98%

Other lines, results leading:

Row | OX2R agonist activity (3 μM, %) | Compound
12 | 94% | CCS(=O)(=O)N[C@H]1[C@@H](F)CN(C(=O)C2CC2)[C@H]1Cc1cccc(-c2cccc(Cl)c2F)c1F [Example 520, N-[(2S,3R,4S)-2-[(3′-chloro-2,2′-difluoro[1,1′-biphenyl]-3-yl)methyl]-1-(cyclopropanecarbonyl)-4-fluoropyrrolidin-3-yl]ethanesulfonamide]
13 | 97% | Cc1cc(F)cc(-c2cccc(C[C@H]3[C@@H](NS(=O)(=O)C4CC4)C(F)(F)CN3C(=O)N(C)C)c2F)c1 [Example 522, (2S,3R)-3-[(cyclopropanesulfonyl)amino]-2-[(2,3′-difluoro-5′-methyl[1,1′-biphenyl]-3-yl)methyl]-4,4-difluoro-N,N-dimethylpyrrolidine-1-carboxamide]
14 | 85% | O=C(N1CCC1)N1CC(F)(F)[C@H](NS(=O)(=O)C2CC2)[C@@H]1Cc1cccc(-c2cc(F)cc(F)c2)c1F [Example 525, N-{(2S,3R)-1-(azetidine-1-carbonyl)-4,4-difluoro-2-[(2,3′,5′-trifluoro[1,1′-biphenyl]-3-yl)methyl]pyrrolidin-3-yl]cyclopropanesulfonamide]
15 | 83% | CN(C)C(=O)N1CC(F)(F)[C@H](NS(=O)(=O)N(C)C)[C@@H]1Cc1cccc(-c2cccc(F)c2)c1F [Example 528, (2S,3R)-2-[(2,3′-difluoro[1,1′-biphenyl]-3-yl)methyl]-3-[(dimethylsulfamoyl)amino]-4,4-difluoro-N,N-dimethylpyrrolidine-1-carboxamide]
16 | 98% | O=C(N1CCC1)N1CC(F)(F)[C@H](NS(=O)(=O)C2CC2)[C@@H]1Cc1cccc(-c2cccc(F)c2)c1F [Example 534, N-{(2S,3R)-1-(azetidine-1-carbonyl)-2-[(2,3′-difluoro[1,1′-biphenyl]-3-yl)methyl]-4,4-difluoropyrrolidin-3-yl}cyclopropanesulfonamide]
17 | 102% | CCS(=O)(=O)N[C@H]1[C@@H](F)CN(C(=O)C2CCO2)[C@H]1Cc1cccc(-c2cccc(C(F)F)c2)c1F (stereo partly drawn) [Example 535, N-[(2S,3R,4S)-2-{[3′-(difluoromethyl)-2-fluoro[1,1′-biphenyl]-3-yl]methyl}-4-fluoro-1-(oxetane-2-carbonyl)pyrrolidin-3-yl]ethanesulfonamide]
18 | 100% | Cc1cccc(-c2cccc(C[C@H]3[C@@H](NS(=O)(=O)C4CC4)[C@@H](F)CN3C(=O)C3(O)CCC3)c2F)c1 [Example 537, N-[(2S,3R,4S)-4-fluoro-2-[(2-fluoro-3′-methyl[1,1′-biphenyl]-3-yl)methyl]-1-(1-hydroxycyclobutane-1-carbonyl)pyrrolidin-3-yl]cyclopropanesulfonamide]
19 | 106% | Cc1cccc(-c2cccc(C[C@H]3[C@@H](NS(=O)(=O)C4CC4)[C@@H](F)CN3C(=O)N(C)C)c2F)c1 [Example 538, (2S,3R,4S)-3-[(cyclopropanesulfonyl)amino]-4-fluoro-2-[(2-fluoro-3′-methyl[1,1′-biphenyl]-3-yl)methyl]-N,N-dimethylpyrrolidine-1-carboxamide]
